Test in all cases: SILAC RP-ABPP
Holding throughout (assay type): cell-based

In experiment [1] the target is T1, ALDOA Fructosebisphosphate aldolase A (P04075) (Homo sapiens, UniProt P04075).
T1 construct: shared by both the endogenous and recombinant forms of these proteins; endogenous in cells; host or cells: HEK293T and MDA-MB-231
T1 sequence (P04075 1-364): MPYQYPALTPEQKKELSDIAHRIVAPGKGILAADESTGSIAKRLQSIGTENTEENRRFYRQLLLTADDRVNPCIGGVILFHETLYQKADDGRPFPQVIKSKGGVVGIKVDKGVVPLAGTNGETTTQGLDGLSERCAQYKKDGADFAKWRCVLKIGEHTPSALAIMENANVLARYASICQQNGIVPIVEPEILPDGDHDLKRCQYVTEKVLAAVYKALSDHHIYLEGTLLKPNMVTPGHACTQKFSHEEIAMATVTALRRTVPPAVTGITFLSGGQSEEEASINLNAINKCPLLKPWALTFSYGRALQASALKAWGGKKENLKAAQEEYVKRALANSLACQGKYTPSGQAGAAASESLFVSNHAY
Particulars: SILAC H/L, HEK293T. The procedure: (§1) For MS-based experiments, labelling was performed in a similar manner as described above in Example 2, maintaining the same concentrations of probes. Modifications to this protocol included using isotopically ‘light’ and ‘heavy’ SILAC cells that were also grown to near complete confluence prior to treatment. Isotopically light cells were treated with the non-clickable hydrazine probe (at the same concentration as the probe in ‘enrichment’ experiments) or the probe in the presence of 10-fold excess non-clickable hydrazine probe as a competitor (in ‘competition’ experiments). Isotopically heavy cells were treated with the probe for both types of experiments. These treatments were performed in non-SILAC media. Following treatments, cells were washed with cold PBS to remove the probe-containing media, harvested by scraping, collected by centrifugation (1,400 g, 3 min, 4° C.), washed again by resuspension in cold PBS and frozen as pellets at −80° C. until use.
(§2) The fractionated equimolar mixture of heavy and light soluble proteomes (1-1.5 mg) was diluted to 1 mL in PBS. Click reactions were scaled accordingly (except for biotin-azide) to maintain final concentrations of 0.1 mM TBTA, 1 mM CuSO4, 100 μM biotin-azide (10 mM in DMSO) and 1 mM TCEP. The mixture was vortexed and placed on a rotator at ambient temperature for 1 hour. Sequential addition of and mixture with pre-chilled methanol (MeOH, 2 mL), chloroform (CHCl3, 0.5 mL) and PBS (1 mL) on ice quenched the reaction. The precipitated proteome was centrifuged (5,000 g, 10 min, 4° C.) to fractionate the protein interphase from the organic and aqueous solvent layers. The protein pellet was washed with cold 1:1 MeOH:CHCl3 (3×1 mL), mildly sonicated in cold 4:1 MeOH:CHCl3 (2.5 mL) and pelleted once more by centrifugation (5,000 g, 10 min, 4° C.) to ensure click reagents were efficiently removed.
(§3) Heavy and light parent ion chromatograms associated with successfully identified peptides were extracted and compared using CIMAGE software as previously described^69. At least one ion of a co-eluting heavy-light pair must be accurately identified from a fragmentation event that occurred within the retention time window (±10 min) of parent ion elution. To ensure that the correct pair of peaks is quantified, chromatograms are extracted within a 10 ppm error tolerance of the predicted m/z, the signal-to-noise ratio must be >2.5 and the ‘co-elution correlation score’ and ‘envelope correlation score’ must have R^2 values ≥0.8. In addition, peptides detected as ‘singletons,’ where only the heavy ion of a peptide pair was identified, but for which passed all other filtering parameters, are given a default assigned ratio of ‘20,’ which is defined as any measured ratio that is ≥20.
(§4) To further eliminate false positives and any stochastic variability in the data, protein ratios were then determined by the median peptide ratio derived from three or more unique quantified peptides. Protein ratios that complied with these criteria from a single experiment were then averaged with ratios acquired from ≥3 replicates to provide final values for each type of experiment in both cell lines with both probes. […] Most importantly, there are no robustly measured ratios for proteins identified as probe 1 targets that had measured ratios of ˜1 with probe 2. Probe targets in HEK293T and MDA-MB-231 cells represent data combined from ≥3 independent biological replicates with each cell type performed with several independent batches of synthesized probes over a period of almost two years. […]

Experiment [2] addresses T2, CTSD Cathepsin D (P07339) (Homo sapiens, UniProt P07339).
T2 construct: In Situ Labelling of Cells with Hydrazine Probes for MS Experiments; endogenous in cells; host or cells: HEK293T and MDA-MB-231
As to conditions: SILAC H/L. As to the method: as §1, §2, §3, §4

In experiment [3] the target is T3, CTSZ Cathepsin Z (Q9UBR2) (Homo sapiens, UniProt Q9UBR2).
T3 construct: In Situ Labelling of Cells with Hydrazine Probes for MS Experiments; endogenous in cells; host or cells: HEK293T and MDA-MB-231
T3 sequence (Q9UBR2 62-303): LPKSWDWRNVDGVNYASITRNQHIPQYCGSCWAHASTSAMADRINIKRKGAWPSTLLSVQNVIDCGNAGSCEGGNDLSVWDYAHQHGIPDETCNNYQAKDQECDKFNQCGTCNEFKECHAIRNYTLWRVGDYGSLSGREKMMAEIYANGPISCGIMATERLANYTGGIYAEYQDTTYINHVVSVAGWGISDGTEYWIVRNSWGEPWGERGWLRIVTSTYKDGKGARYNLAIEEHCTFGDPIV
Particulars: SILAC H/L, MDA-MB-231. The procedure: as §1, §2, §3, §4

Experiment [4] deals with T4, MAN2B1 Lysosomal alphamannosidase (O00754) (Homo sapiens, UniProt O00754).
T4 construct: shared by both the endogenous and recombinant forms of these proteins; endogenous in cells; host or cells: HEK293T and MDA-MB-231
T4 sequence (O00754 50-1011): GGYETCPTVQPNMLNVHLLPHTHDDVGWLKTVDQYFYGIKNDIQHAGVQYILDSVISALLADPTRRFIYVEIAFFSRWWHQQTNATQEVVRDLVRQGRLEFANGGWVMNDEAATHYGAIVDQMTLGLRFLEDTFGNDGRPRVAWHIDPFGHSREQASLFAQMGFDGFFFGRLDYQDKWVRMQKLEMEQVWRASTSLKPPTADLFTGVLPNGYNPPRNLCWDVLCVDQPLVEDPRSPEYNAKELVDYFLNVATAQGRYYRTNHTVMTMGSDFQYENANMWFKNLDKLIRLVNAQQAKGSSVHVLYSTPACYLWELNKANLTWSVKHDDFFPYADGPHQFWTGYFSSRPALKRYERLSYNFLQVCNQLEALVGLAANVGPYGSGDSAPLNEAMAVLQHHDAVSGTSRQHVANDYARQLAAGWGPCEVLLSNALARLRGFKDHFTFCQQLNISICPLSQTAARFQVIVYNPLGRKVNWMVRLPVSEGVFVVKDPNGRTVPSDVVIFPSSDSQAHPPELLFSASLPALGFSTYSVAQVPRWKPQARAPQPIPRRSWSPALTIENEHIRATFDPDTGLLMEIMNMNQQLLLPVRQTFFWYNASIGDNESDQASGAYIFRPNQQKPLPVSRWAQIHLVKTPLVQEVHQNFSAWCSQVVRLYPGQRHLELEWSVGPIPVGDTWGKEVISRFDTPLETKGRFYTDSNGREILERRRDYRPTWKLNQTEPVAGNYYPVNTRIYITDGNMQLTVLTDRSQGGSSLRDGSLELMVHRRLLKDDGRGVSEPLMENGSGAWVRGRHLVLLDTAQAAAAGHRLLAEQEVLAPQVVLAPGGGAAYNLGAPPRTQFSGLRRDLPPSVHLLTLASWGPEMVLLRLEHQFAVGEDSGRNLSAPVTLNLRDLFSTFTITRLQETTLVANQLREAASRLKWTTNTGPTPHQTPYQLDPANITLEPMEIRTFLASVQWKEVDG
As to conditions: SILAC H/L, MDA-MB-231. As to the method:
as §1, §2, §3, §4

Molecules are shown by their SMILES.

T2 sequence (P07339 65-412): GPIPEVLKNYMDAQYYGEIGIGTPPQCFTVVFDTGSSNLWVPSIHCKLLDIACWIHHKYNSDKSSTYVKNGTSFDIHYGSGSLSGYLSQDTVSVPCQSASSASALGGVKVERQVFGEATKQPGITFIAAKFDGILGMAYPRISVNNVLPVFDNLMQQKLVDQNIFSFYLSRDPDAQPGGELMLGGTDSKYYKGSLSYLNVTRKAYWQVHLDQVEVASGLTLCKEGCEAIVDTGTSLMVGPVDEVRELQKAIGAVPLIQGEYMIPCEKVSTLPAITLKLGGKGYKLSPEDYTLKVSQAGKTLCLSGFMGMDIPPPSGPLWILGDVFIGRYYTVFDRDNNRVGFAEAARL

On to `C#CCCNC(=O)c1ccc(NN)cc1.Cl` [probe 2, N-(but-3-yn-1-yl)-4-hydrazinylbenzamide hydrochloride], for which the enrichment ratioavg in experiment [1] (probe 2 1 mM 0.5 h vs probe 4) came out at 12; in experiment [2] (probe 2 1 mM 0.5 h vs probe 4, MDA-MB-231), 16; in experiment [3] (probe 2 1 mM 0.5 h vs probe 4), 19; in experiment [4] (probe 2 1 mM 0.5 h vs probe 4), 20. Moreover, the competition ratioavg in experiment [1] (probe 2 vs probe 2+10x probe 4) worked out at 5; in experiment [2] (probe 2 vs probe 2+10x probe 4, MDA-MB-231), 4; in experiment [3] (probe 2 vs probe 2+10x probe 4), 5; in experiment [4] (probe 2 vs probe 2+10x probe 4), 4.
Take `C#CCNN.Cl` [probe 1, prop-2-yn-1-ylhydrazine hydrochloride]: the enrichment ratioavg in experiment [1] (probe 1 3 mM 0.5 h vs probe 3) was 16; in experiment [2] (probe 1 3 mM 0.5 h vs probe 3, HEK293T) it was 13; in experiment [3] (probe 1 3 mM 0.5 h vs probe 3) it was 13; in experiment [4] (probe 1 3 mM 0.5 h vs probe 3), 20. In addition, the competition ratioavg amounted to 3 in experiment [1] (probe 1 vs probe 1+10x probe 3); 1 in experiment [2] (probe 1 vs probe 1+10x probe 3, HEK293T); 3 in experiment [3] (probe 1 vs probe 1+10x probe 3); 8 in experiment [4] (probe 1 vs probe 1+10x probe 3).

These data come from patent US11226337B2, “Chemoproteomic profiling of protein electrophilic and oxidative post-translational modifications” (Zenagem, LLC, priority 2017, dated 2022).
